Positions of bridges follow the written chain, without caps; N, C: chain ends. Residues, ends and D or L forms follow the SMILES beside them. *: point of attachment. Biotin = O=C1N[C@H]2[C@H](CS[C@H]2CCCCC(=O)*)N1
Experiments:
[1] = system: CAT; test: Total CAT activity in protein extracted from WT seedlings; type: biochemical, Arabidopsis thaliana; settings: 1 nM
Description: Enzymatic activity of CAT isozymes and total CAT activities of protein extracted from WT and atpnp-a or cat2-2 mutant lines, when indicated sprayed with 1 nM pAtPNP-A or pScr 20 min before harvesting, were determined zymographically and spectrophotometrically, as described in[56]. Relative quantification of intensity of bands corresponding to different CAT isoforms was performed with ImageJ version 1.48 (https://imagej.nih.gov/ij/). Enzymatic activity of the rCAT2 in the presence of absence of 100 nM rAtPNP-A, pAtPNP-A or pScr were determined with the use of Amplex Red catalase assay kit (Invitrogen) according to the manufacturer’s instructions.
Figure 3 AtPNP-A directly interacts with CAT2 to modulate its enzymatic activity in vitro. (a) Zymogram depicting changes in the enzymatic activity of CAT isoforms extracted from wild type (WT) or cat2-2 knockout mutant seedlings in response to 1 nM pAtPNP-A or pScr. Densitometric semi-quantification of bands corresponding to CAT2, normalized to the loading control (dark-coloured band on zymogram) for WT samples treated with 1 nM pAtPNP-A or pScr (mean ± SD, Student’s t-test, n = 3, P < 0.05). […] (b) Total CAT activity in protein extracted from WT seedlings assayed with Amplex Red catalase assay kit in the presence of 1 nM pAtPNP-A, rAtPNP-A, or pScr. […] (c) Enzymatic activity of rCAT2 in the presence of 100 nM pAtPNP-A, rAtPNP-A, or pScr.

[2] = system: ADH5, alcohol dehydrogenase 2; test: Yeast two-hybrid (Y2H) screen; type: binding, A. thaliana; settings: bait AtPNP-A amino acids 26–130, prey At5g43940.1
Description: (§1) The Y2H screen using AtPNP-A as bait was carried out by Dualsystems Biotech AG (Zurich, Switzerland). The bait construct for the screening was made by subcloning the cDNA fragment encoding exported portion of AtPNP-A (amino acids 26 to 130) (Fig. 1a) into the pLexA-DIR vector (Dualsystems Biotech AG). The bait construct was transformed into the strain NMY32 (MATa his3Δ200 trp1-901 leu2-3,112 (lexAop)8-ADE2 LYS2::(lexAop)4-HIS3 URA3::(lexAop)8-lacZ GAL4) using standard procedures. Correct expression of the bait was verified by western blotting of cell extracts using a mouse monoclonal antibody directed against the LexA domain (Dualsystems Biotech AG). The absence of self-activation was verified by co-transformation of the bait together with a control prey and selection on minimal medium lacking tryptophan, leucine, and histidine (selective medium). For the Y2H screen, the bait was co-transformed together with a normalized A. thaliana universal P02403 cDNA library (Dualsystems Biotech AG) into NMY32. 3.1 × 10^6 transformants were screened, yielding 96 transformants that grew on selective medium. […] Library plasmids were isolated from positive clones. The identity of positive interactants was determined by sequencing. DNA sequences translated in all three reading frames and searching against the SwissProt database using the BLASTX algorithm (https://blast.ncbi.nlm.nih.gov).

[3] = system: CLA, 1-deoxy-D-xylulose-5-phosphate synthase; test: Yeast two-hybrid (Y2H) screen; type: binding, A. thaliana; settings: bait AtPNP-A amino acids 26–130, prey At4g15560.1
Description: as §1

[4] = system: CRF6, cytokinin response factor 6; test: Yeast two-hybrid (Y2H) screen; type: binding, A. thaliana; settings: bait AtPNP-A amino acids 26–130, prey At3g61630.1
Description: as §1

[5] = system: ERF7, ethylene response factor 7; test: Yeast two-hybrid (Y2H) screen; type: binding, A. thaliana; settings: bait AtPNP-A amino acids 26–130, prey At3g20310.1
Description: as §1

[6] = system: ERP/AP2, ethylene response factor; test: Yeast two-hybrid (Y2H) screen; type: binding, A. thaliana; settings: bait AtPNP-A amino acids 26–130, prey At5g07580.1
Description: as §1

[7] = system: Expr, expansin-like B1; test: Yeast two-hybrid (Y2H) screen; type: binding, A. thaliana; settings: bait AtPNP-A amino acids 26–130, prey At4g17030.1
Description: as §1

[8] = system: HISN5B, histidine biosynthesis 5B; test: Yeast two-hybrid (Y2H) screen; type: binding, A. thaliana; settings: bait AtPNP-A amino acids 26–130, prey At4g14910.1
Description: as §1

[9] = system: IGPD, imidazole glycerol-phosphate dehydratase; test: Yeast two-hybrid (Y2H) screen; type: binding, A. thaliana; settings: bait AtPNP-A amino acids 26–130, prey At3g22425.1
Description: as §1

[10] = system: NUDX1, nudix hydrolase 1; test: Yeast two-hybrid (Y2H) screen; type: binding, A. thaliana; settings: bait AtPNP-A amino acids 26–130, prey At1g68760.1
Description: as §1

[11] = system: PGR1, photosynthetic electron transfer C; test: Yeast two-hybrid (Y2H) screen; type: binding, A. thaliana; settings: bait AtPNP-A amino acids 26–130, prey At4g03280.1
Description: as §1

[12] = system: PLL4, poltergeist like 4; test: Yeast two-hybrid (Y2H) screen; type: binding, A. thaliana; settings: bait AtPNP-A amino acids 26–130, prey At2g28890.1
Description: as §1

[13] = system: Protein containing PAM2 motif; test: Yeast two-hybrid (Y2H) screen; type: binding, A. thaliana; settings: bait AtPNP-A amino acids 26–130, prey At4g14270.1
Description: as §1

[14] = system: RAP2.12, ethylene response factor; test: Yeast two-hybrid (Y2H) screen; type: binding, A. thaliana; settings: bait AtPNP-A amino acids 26–130, prey At1g53910.1
Description: as §1

[15] = system: RCA, rubisco activase; test: Yeast two-hybrid (Y2H) screen; type: binding, A. thaliana; settings: bait AtPNP-A amino acids 26–130, prey At2g39730.1
Description: as §1

[16] = system: SHA1, shoot apical meristem arrest 1; test: Yeast two-hybrid (Y2H) screen; type: binding, A. thaliana; settings: bait AtPNP-A amino acids 26–130, prey At5g63780.1
Description: as §1

[17] = system: Unknown protein; test: Yeast two-hybrid (Y2H) screen; type: binding, A. thaliana; settings: bait AtPNP-A amino acids 26–130, prey At5g39570.1
Description: as §1

[18] = system: receptor perceiving AtPNP-A; settings: cited from earlier work
Text: Similarly, identification of novel receptors targeted by an increasing number of peptidic plant hormones discovered in the last few decades[8],[9] is anticipated. One of those, the plant natriuretic peptides (PNPs), are a group of systemically mobile signals[10] that have a role in the maintenance of salt and water balance[11],[12]. An A. thaliana PNP, termed AtPNP-A (At2g18660; Q9ZV52), has been implicated in several physiological processes ranging from the regulation of stomatal aperture, osmoticum-dependent volume changes[13],[14] and modulation of developmental stage- and tissue-specif ...

Row | Molecule | Total CAT activity of protein extracts ([1]; WT seedling protein, Amplex Red kit, mean ± SD, n = 3, P < 0.05) | H2O2 breakdown by WT seedling protein extract ([1]; total protein extracted from WT seedlings, n = 3) | Strength of binding [2] | Strength of binding [3] | Strength of binding [4] | Strength of binding [5] | Strength of binding [6] | Strength of binding [7] | Strength of binding [8] | Strength of binding [9] | Strength of binding [10] | Strength of binding [11] | Strength of binding [12] | Strength of binding [13] | Strength of binding [14] | Strength of binding [15] | Strength of binding [16] | Strength of binding [17] | Generation of cGMP by receptor upon AtPNP-A binding [18]
1 | CC(C)C[C@@H]1NC(=O)[C@H](CC(N)=O)NC(=O)[C@H](CC(N)=O)NC(=O)[C@H](CCCCN)NC(=O)[C@H](C(C)C)NC(=O)CNC(=O)[C@H](C(C)C)NC(=O)[C@H](C(C)C)NC(=O)[C@H](CC(C)C)NC(=O)[C@H]([C@@H](C)O)NC(=O)[C@H](CCC(=O)O)NC(=O)[C@H](CCCNC(=N)N)NC(=O)[C@H](CCC(N)=O)NC(=O)[C@H]([C@@H](C)O)NC(=O)CNC(=O)[C@H](Cc2ccc(O)cc2)NC(=O)[C@@H](NC(=O)[C@H](C)NC(=O)[C@H](CO)NC(=O)[C@H](CCCNC(=N)N)NC(=O)[C@@H](NC(=O)[C@H](Cc2ccc(O)cc2)NC(=O)[C@@H]2CCCN2)[C@@H](C)O)CSSC[C@@H](C(=O)NCC(=O)N[C@@H](CCCNC(=N)N)C(=O)N[C@@H](CCCNC(=N)N)C(=O)N[C@@H](Cc2ccc(O)cc2)C(=O)N[C@@H](CCCNC(=N)N)C(=O)N[C@H](C(=O)N[C@@H](CCCNC(=N)N)C(=O)N[C@@H](CCCCNC(=O)CCCC[C@@H]2SC[C@@H]3NC(=O)N[C@@H]32)C(=O)O)C(C)C)NC(=O)[C@H](C)NC(=O)[C@H](CCCNC(=N)N)NC(=O)CNC(=O)[C@H](CC(N)=O)NC(=O)[C@H](CCC(N)=O)NC(=O)[C@H](Cc2c[nH]c3ccccc23)NC1=O [pAtPNP-A] (H-PYTRSACYGTQRETLVVGVKNNLWQNGRACGRRYRVRK(Biotin)-OH; disulfide 7-30; N-terminus and C-terminus assumed) | elevated total CAT activity | more rapid H2O2 breakdown |  |  |  |  |  |  |  |  |  |  |  |  |  |  |  |  | 
2 | AtPNP-A: An A. thaliana PNP, termed AtPNP-A (At2g18660; Q9ZV52) |  |  | Weak | Weak | Weak | Strong | Strong | Weak | Moderate | Strong | Moderate | Weak | Strong | Moderate | Strong | Strong | Strong | Weak | catalyzes generation of cGMP upon binding of AtPNP-A

— paper PMC7665192, “A natriuretic peptide from Arabidopsis thaliana (AtPNP-A) can modulate catalase 2 activity” (Scientific Reports, 2020)
